Measurements reported in patent EP0044955B1, “Liquid herbicide mixtures” (BASF Aktiengesellschaft, priority 1980, dated 1982).
Where two headings read alike, the source gives them in different places.

Columns and labels:
Type in all cases: physicochemical
[1] = Water solubility of the solvents; conditions: for Wasserlöslichkeit der Lösungsmittel (%): Säureamide of Tabelle 4; for H2O-Löslichkeit des Lösungsmittels (%) Gew.-% Lösungs-mittel in Wasser: Tabelle 1 solvents
Excerpt: (§1) Beispiele von Säureamiden sind in der Tabelle 4 zusammengefaßt. Bestimmt wurden die Löslichkeiten der Substanzen 1 (Chloridazon) und 2 (Biscarbamat) wie sie in Tabelle 1 aufgeführt sind, sowie die Wasserlöslichkeit der Lösungsmittel.

[2] = Phenmedipham degradation in formulations at various temperatures
Excerpt: Es wurde der Abbau des Phenmedipham bei verschiedenen Temperaturen verfolgt.

[3] = Stability of Phenmedipham in solvents, 24 h storage, HPLC; conditions: 24 Std., read-out: Restwirkstoff an Phenmedipham Wirkstoffgehalt
Description: In der folgenden Tabelle sind die Stabilitätsuntersuchungen von Phenmedipham bei verschiedenenen Temperaturen und konstanter Zeit zusammengefaßt. Es wurden 500 mg technischer Wirkstoff in 25 ml Lösungsmittel gelöst, die Lösungen bei der entsprechend gewählten Temperatur 24 Stunden gelagert und der Restwirkstoffgehalt analytisch mit Hilfe der HPLC-Methode bestimmt.

[4] = Active ingredient stability in solvents (0,002 molar, HPLC); conditions: for remaining at 5 min, 2000 µM: Abbauzeit 5 min; for remaining at 20 min, 2000 µM: Abbauzeit 20 min; for remaining at 1 h, 2000 µM: Abbauzeit 60 min; for remaining at 7 min, 2000 µM: Abbauzeit 7 min; for remaining at 0.5 h, 2000 µM: Abbauzeit 30 min
Excerpt: In der Tabelle 2 wird die Wirkstoffstabilität der oben genannten Substanz 2 in verschiedenen Lösungsmitteln als Beispiel aufgeführt. […] Die Konzentration an Wirkstoff war bei diesen Untersuchungen 0,002 molar. Die Analyse wurde mit Hilfe der Hochdruckflüssigkeitschromatographie (HPLC) durchgeführt.

[5] = Solubility of Substanz 1 and Substanz 2 in solvents at room temperature
Excerpt: as §1

[6] = dimethylformamid (technisch), Dimethylformid (technisch), 50°C, read-out: Wirkstoffgehalt
[7] = dimethylformamid (technisch), Dimethylformid (technisch), 70°C, read-out: Wirkstoffgehalt
[8] = n-methylpyrrolidon, N-Methylpyrrolidon (rein 0,05% H2O), 50°C, read-out: Wirkstoffgehalt
[9] = n-methylpyrrolidone, N-Methylpyrrolidon (rein 0,05% H2O), 30°C, read-out: Wirkstoffgehalt

Question: With `CCCCC(CC)C(=O)N(C)C` (centres unmarked) [compound 9] as the molecule, how does the “Wasserlöslichkeit der Lösungsmittel (%)” value [1] read?
Answer: 1,5%

Question: Which “Wasserlöslichkeit der Lösungsmittel (%)” value [1] does the source give for `CCCN(CCC)C(=O)C(C)C` [compound 8] here?
Answer: 1,6%

Question: With `CCCC(=O)N(CCC)CCC` [compound 7] as the molecule, how does the “Wasserlöslichkeit der Lösungsmittel (%)” value [1] read?
Answer: 1,5%

Question: With `COC(=O)Nc1cccc(OC(=O)Nc2cccc(C)c2)c1` [Phenmedipham, 3-Methoxycarbonylaminophenyl-N-(3'-methyl-phenyl)-carbamat] as the molecule, how does the “Phenmedipham-Abbau Wirkstoffgehalt” value ([2]; formulation (g/l): 50 Phenmedipham, 150 Chloridazon, 200 Netzmittel, 50 Emulgiermittel, ad 1000 g Dimethylformamid, 50°C, 4 Wochen, 40320 min) read?
Answer: 4,8%

Question: And the “Phenmedipham-Abbau Wirkstoffgehalt” value ([2]; formulation (g/l): 50 Phenmedipham, 150 Chloridazon, 200 Netzmittel, 50 Emulgiermittel, ad 1000 g Dimethylformamid, Rt, 4 Wochen, 40320 min)?
Answer: 79,5%

Question: And the “Phenmedipham-Abbau Wirkstoffgehalt” value ([2]; formulation (g/l): 167 Chloridazon, 83 Phenmedipham, 300 N-Methylpyrrolidon, 24 Morpholin, 100 Emulgiermittel, 326 Cyclohexanon-Destillationsrückstände (DE-PS 16 42 216, Beispiel 6/I), 50°C, 1 Stunde)?
Answer: 30,8%

Question: What about the “Phenmedipham-Abbau Wirkstoffgehalt” value ([2]; formulation with N-Methylpyrrolidon and Morpholin (DE-PS 16 42 216, Beispiel 6/I), 50°C, 2 Stunden) of the same molecule?
Answer: 16,4%

Question: What about the “Phenmedipham-Abbau Wirkstoffgehalt” value ([2]; formulation with N-Methylpyrrolidon and Morpholin (DE-PS 16 42 216, Beispiel 6/I), 50°C, 3 Stunden) of the same molecule?
Answer: 12,8%

Question: And the “Phenmedipham-Abbau Wirkstoffgehalt” value ([2]; formulation with N-Methylpyrrolidon and Morpholin (DE-PS 16 42 216, Beispiel 6/I), 70°C, 1 Stunde)?
Answer: 3,21%

Question: And the Wirkstoffgehalt ([2]; formulation with mixture of Dimethylformamid and Isophoron instead of Dimethylformamid alone, 4 Wochen, 50° C, 40320 min)?
Answer: ca. 60%

Question: What about the remaining at 24 h ([3]; 2-äthylhexancarbonsäureamid, 2-Äthylhexancarbonsäureamid (Nr. 9 aus Tabelle 4), 50°C) of the same molecule?
Answer: 98.1%

Question: What about the remaining at 24 h ([3]; 2-äthylhexancarbonsäureamid, 2-Äthylhexancarbonsäureamid (Nr. 9 aus Tabelle 4), 70°C) of the same molecule?
Answer: 98%

Question: And the remaining at 24 h ([3]; dimethylformamid, 50°C)?
Answer: 9.3%

Question: What about the remaining at 24 h ([3]; isophoron, 50°C) of the same molecule?
Answer: 99.3%

Question: And the remaining at 24 h ([3]; isophoron, 70°C)?
Answer: 96.3%

Question: And the remaining at 24 h ([3]; n,n-dipropylbuttersäureamid, N,N-Dipropylbuttersäureamid (Nr. 7 aus Tabelle 4), 50°C)?
Answer: 100%

Question: What about the remaining at 24 h ([3]; n,n-dipropylbuttersäureamid, N,N-Dipropylbuttersäureamid (Nr. 7 aus Tabelle 4), 70°C) of the same molecule?
Answer: 97.6%

Question: And the remaining at 24 h ([3]; n,n-diäthyl-3-methyl-benzolcarbonsäureamid, N,N-Diäthyl-3-methyl-benzolcarbonsäureamid (Nr. 11 Tabelle 4), 50°C)?
Answer: 95.5%

Question: What about the remaining at 24 h ([3]; n,n-diäthyl-3-methyl-benzolcarbonsäureamid, N,N-Diäthyl-3-methyl-benzolcarbonsäureamid (Nr. 11 Tabelle 4), 70°C) of the same molecule?
Answer: 60%

Question: For `CCN(CC)C(=O)c1ccccc1` [compound 10], which “Wasserlöslichkeit der Lösungsmittel (%)” value [1] is on record?
Answer: 3,7%

Question: Which “H2O-Löslichkeit des Lösungsmittels (%) Gew.-% Lösungs-mittel in Wasser” value [1] does the source give for `CC1=CC(=O)CC(C)(C)C1` [Isophoron, reference compound] here?
Answer: 1,2%

Question: Which “Wasserlöslichkeit der Lösungsmittel (%)” value [1] does the source give for `CCCN(CCC)C(=O)c1ccccc1` [compound 12] here?
Answer: 0,5%

Question: With `Nc1cnn(-c2ccccc2)c(=O)c1Cl` [Substanz 1, 1-Phenyl-4-amino-5-chlor-pyridazon-(6), reference compound] as the molecule, how does the Stabilität ([4]; in the solvents of Tabelle 2) read?
Answer: keine Schwierigkeiten

Question: With `CCOC(=O)Nc1cccc(OC(=O)Nc2ccc(F)c(Cl)c2)c1` [Substanz 2, (3-Chlor-4-fluorphenyl)carbaminsäure-3(ethoxy-carbonyl)amino-phenylester] as the molecule, how does the remaining at 5 min, 2000 µM [4, 6] read?
Answer: 99.5%

Question: What about the remaining at 20 min, 2000 µM [4, 6] of the same molecule?
Answer: 98.1%

Question: What about the remaining at 1 h, 2000 µM [4, 6] of the same molecule?
Answer: 95.5%

Question: What about the remaining at 7 min, 2000 µM [4, 7] of the same molecule?
Answer: 98.5%

Question: What about the remaining at 0.5 h, 2000 µM [4, 7] of the same molecule?
Answer: 87.2%

Question: And the remaining at 1.05 h, 2000 µM ([4]; dimethylformamid (technisch), Dimethylformid (technisch), 70°C, Abbauzeit 63 min, read-out: Wirkstoffgehalt)?
Answer: 57.4%

Question: And the remaining at 7 min, 2000 µM ([4]; dimethylformamid (technisch), Dimethylformid (technisch), 80°C, read-out: Wirkstoffgehalt)?
Answer: 85.4%

Question: And the remaining at 23 min, 2000 µM ([4]; dimethylformamid (technisch), Dimethylformid (technisch), 80°C, Abbauzeit 23 min, read-out: Wirkstoffgehalt)?
Answer: 54.7%

Question: What about the remaining at 37 min, 2000 µM ([4]; dimethylformamid (technisch), Dimethylformid (technisch), 80°C, Abbauzeit 37 min, read-out: Wirkstoffgehalt) of the same molecule?
Answer: 32.9%

Question: And the remaining at 24 h, 2000 µM ([4]; isophoron, 80°C, Abbauzeit 24 Std., read-out: Wirkstoffgehalt)?
Answer: 93%

Question: And the remaining at 5 min, 2000 µM [4, 8]?
Answer: 92.3%

Question: What about the remaining at 20 min, 2000 µM [4, 8] of the same molecule?
Answer: 76.5%

Question: And the remaining at 1 h, 2000 µM [4, 8]?
Answer: 52.8%

Question: And the remaining at 5 min, 2000 µM [4, 9]?
Answer: 100%

Question: What about the remaining at 0.5 h, 2000 µM [4, 9] of the same molecule?
Answer: 96.7%

Question: What about the remaining at 3.5 h, 2000 µM ([4]; n-methylpyrrolidone, N-Methylpyrrolidon (rein 0,05% H2O), 30°C, Abbauzeit 210 min, read-out: Wirkstoffgehalt) of the same molecule?
Answer: 76.3%

Question: And the “Löslichkeit in % (g Substanz in 100 g Lösung bei Raumtemperatur (RT 20°C))” value (shortened to “Löslichkeit in %”) ([5]; in Cyclohexanon)?
Answer: 35,0%

Question: What about the “Löslichkeit in %” value ([5]; in Dimethylformamid) of the same molecule?
Answer: 47,2%

Question: And the “Löslichkeit in %” value ([5]; in Dimethylsulfoxid)?
Answer: 55,3%

Question: What about the “Löslichkeit in %” value ([5]; in Isophoron) of the same molecule?
Answer: 33,7%

Question: And the “Löslichkeit in %” value ([5]; in N-Methylpyrrolidon)?
Answer: 30,8%

Question: And the “Löslichkeit in (%)” value ([5]; in Säureamid Nr. 1, Rt)?
Answer: 39,9%

Question: And the “Löslichkeit in (%)” value ([5]; in Säureamid Nr. 2, Rt)?
Answer: 37,0%

Question: And the “Löslichkeit in (%)” value ([5]; in Säureamid Nr. 3, Rt)?
Answer: 43,8%

Question: What about the “Löslichkeit in (%)” value ([5]; in Säureamid Nr. 4, Rt) of the same molecule?
Answer: 45,4%

Question: And the “Löslichkeit in (%)” value ([5]; in Säureamid Nr. 5, Rt)?
Answer: 41,6%

Question: And the “Löslichkeit in (%)” value ([5]; in Säureamid Nr. 6, Rt)?
Answer: 49,0%

Question: What about the “Löslichkeit in (%)” value ([5]; in Säureamid Nr. 7, Rt) of the same molecule?
Answer: 38,8%

Question: And the “Löslichkeit in (%)” value ([5]; in Säureamid Nr. 8, Rt)?
Answer: 45,5%

Question: And the “Löslichkeit in (%)” value ([5]; in Säureamid Nr. 9, Rt)?
Answer: 29,1%

Question: What about the “Löslichkeit in (%)” value ([5]; in Säureamid Nr. 10, Rt) of the same molecule?
Answer: 39,5%

Question: And the “Löslichkeit in (%)” value ([5]; in Säureamid Nr. 11, Rt)?
Answer: 29,4%

Question: What about the “Löslichkeit in (%)” value ([5]; in Säureamid Nr. 12, Rt) of the same molecule?
Answer: 33,3%

Question: And the “Löslichkeit in (%)” value ([5]; in Säureamid Nr. 13, Rt)?
Answer: 31,1%

Question: With `CCN(CC)C(=O)c1cccc(C)c1` [compound 11] as the molecule, how does the “Wasserlöslichkeit der Lösungsmittel (%)” value [1] read?
Answer: 2,2%

Question: Which “H2O-Löslichkeit des Lösungsmittels (%) Gew.-% Lösungs-mittel in Wasser” value [1] does the source give for `O=C1CCCCC1` [Cyclohexanon, reference compound] here?
Answer: 3-4%
